Source: patent US8969325B2, “TRPV1 antagonists” (AbbVie Inc., priority 2011, dated 2015)
pIC50: −log10 of the molar value.

What was measured:
human TRPV1 [1] = molecular target: T1, human TRPV1 (Homo sapiens (Human), UniProt Q8NER1); test: Capsaicin Activation Assay (intracellular Ca2+, FLIPR); type: cell-based; settings: recombinant HEK293 cells expressing hTRPV1, 50 nM capsaicin
In short: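 Ca2+ fluorescence was recorded by FLIPR every 1 to 5 seconds in HEK293 cells, clonally selected for stable human TRPV1 expression and plated one day ahead. Test compounds came as serial dilutions of 10 mM DMSO stocks.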

human TRPV1 [2] = molecular target: T1, human TRPV1; test: Acid Activation Assay (pH 5.0, intracellular Ca2+, FLIPR); type: cell-based; settings: percentage of the maximal pH 5.0-induced response remaining; recombinant HEK293 hTRPV1 cells; maximum concentration tested 37.5 μM
In short: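 Readout: peak [Ca2+]i fluorescence over baseline on FLIPR, expressed as percentage remaining of the maximal pH 5.0-evoked signal. Stable hTRPV1-HEK293 cells with Calcium-4 dye received compound (12 half-log concentrations, maximum 37.5 μM) 3 min before acidic pH 5.0 buffer.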

T1 sequence (Q8NER1 whole entry): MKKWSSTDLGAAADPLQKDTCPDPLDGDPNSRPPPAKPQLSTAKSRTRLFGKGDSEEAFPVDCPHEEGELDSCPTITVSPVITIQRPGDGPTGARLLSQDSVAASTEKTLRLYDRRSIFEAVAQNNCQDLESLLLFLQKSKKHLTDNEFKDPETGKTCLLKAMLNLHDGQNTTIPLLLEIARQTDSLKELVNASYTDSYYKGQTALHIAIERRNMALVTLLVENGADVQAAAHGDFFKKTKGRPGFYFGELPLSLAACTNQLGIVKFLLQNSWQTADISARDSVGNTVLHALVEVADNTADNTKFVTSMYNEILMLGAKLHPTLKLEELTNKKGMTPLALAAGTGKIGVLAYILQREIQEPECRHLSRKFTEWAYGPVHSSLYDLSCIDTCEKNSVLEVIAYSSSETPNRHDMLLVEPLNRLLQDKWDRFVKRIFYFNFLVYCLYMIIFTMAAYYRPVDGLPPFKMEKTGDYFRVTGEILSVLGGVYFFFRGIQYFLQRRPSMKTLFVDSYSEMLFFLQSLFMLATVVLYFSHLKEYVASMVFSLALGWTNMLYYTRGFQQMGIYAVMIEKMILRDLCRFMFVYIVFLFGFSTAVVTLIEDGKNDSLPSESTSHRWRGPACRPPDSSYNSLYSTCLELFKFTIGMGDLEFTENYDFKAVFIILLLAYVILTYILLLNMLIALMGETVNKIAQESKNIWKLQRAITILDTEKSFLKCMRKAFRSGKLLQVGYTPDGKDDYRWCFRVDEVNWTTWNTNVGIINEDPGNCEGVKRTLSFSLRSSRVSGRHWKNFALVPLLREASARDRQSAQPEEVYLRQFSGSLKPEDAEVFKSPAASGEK

Row | pIC50 (human TRPV1 [1]) | human TRPV1 H^+ (max % remain) (human TRPV1 [2]) | SMILES
1 | 7.42 | 18% | CC1(C)C[C@@H](NC(=O)Nc2ccc3c(c2)NC(=O)CC3)c2ccc(C(F)(F)F)nc2O1 [Example 247, 1-[(4R)-2,2-dimethyl-7-(trifluoromethyl)-3,4-dihydro-2H-pyrano[2,3-b]pyridin-4-yl]-3-(2-oxo-1,2,3,4-tetrahydroquinolin-7-yl)urea]
2 | 6.80 | 24% | C[C@@]1(C(F)F)C[C@@H](NC(=O)Nc2ccc3c(c2)NC(=O)CC3)c2ccccc2O1 [Example 248, 1-[(2S,4R)-2-(difluoromethyl)-2-methyl-3,4-dihydro-2H-chromen-4-yl]-3-(2-oxo-1,2,3,4-tetrahydroquinolin-7-yl)urea]
3 | 6.96 | 28% | C[C@]1(C(F)F)C[C@@H](NC(=O)Nc2ccc3c(c2)NC(=O)CC3)c2ccccc2O1 [Example 249, 1-[(2R,4R)-2-(difluoromethyl)-2-methyl-3,4-dihydro-2H-chromen-4-yl]-3-(2-oxo-1,2,3,4-tetrahydroquinolin-7-yl)urea]
4 | 7.28 | 23% | O=C1CCc2ccc(NC(=O)N[C@@H]3CC(CF)(CF)Oc4cc(F)ccc43)cc2N1 [Example 250, 1-[(4R)-7-fluoro-2,2-bis(fluoromethyl)-3,4-dihydro-2H-chromen-4-yl]-3-(2-oxo-1,2,3,4-tetrahydroquinolin-7-yl)urea]
5 | 7.89 | 48% | O=C1CCc2ccc(NC(=S)N[C@@H]3CC(CF)(CF)Oc4cc(Cl)ccc43)cc2N1 [Example 252, 1-[(4R)-7-chloro-2,2-bis(fluoromethyl)-3,4-dihydro-2H-chromen-4-yl]-3-(2-oxo-1,2,3,4-tetrahydroquinolin-7-yl)thiourea]
6 | 6.96 | 31% | CN1C(=O)CCc2ccc(NC(=O)N[C@@H]3CC(C)(C)Oc4cc(F)ccc43)cc21 [Example 253, 1-[(4R)-7-fluoro-2,2-dimethyl-3,4-dihydro-2H-chromen-4-yl]-3-(1-methyl-2-oxo-1,2,3,4-tetrahydroquinolin-7-yl)urea]
7 | 6.89 | 73% | CN1C(=O)CCc2c(NC(=O)N[C@@H]3CC(CF)(CF)Oc4cc(Cl)ccc43)cccc21 [Example 254, 1-[(4R)-7-chloro-2,2-bis(fluoromethyl)-3,4-dihydro-2H-chromen-4-yl]-3-(1-methyl-2-oxo-1,2,3,4-tetrahydroquinolin-5-yl)urea]
8 | 7.70 | 5% | CN1C(=O)CCc2ccc(NC(=O)N[C@@H]3CC(CF)(CF)Oc4cc(Cl)ccc43)cc21 [Example 255, 1-[(4R)-7-chloro-2,2-bis(fluoromethyl)-3,4-dihydro-2H-chromen-4-yl]-3-(1-methyl-2-oxo-1,2,3,4-tetrahydroquinolin-7-yl)urea]
9 | 6.41 | 89% | CN1C(=O)CCc2ccc(NC(=O)N[C@@H]3CC(C)(C)Oc4c3cccc4C(F)(F)F)cc21 [Example 256, 1-[(4R)-2,2-dimethyl-8-(trifluoromethyl)-3,4-dihydro-2H-chromen-4-yl]-3-(1-methyl-2-oxo-1,2,3,4-tetrahydroquinolin-7-yl)urea]
10 | 7.68 | 72% | CN1C(=O)CCc2ccc(NC(=O)N[C@@H]3CC(C)(C)Oc4c(F)cccc43)cc21 [Example 257, 1-[(4R)-8-fluoro-2,2-dimethyl-3,4-dihydro-2H-chromen-4-yl]-3-(1-methyl-2-oxo-1,2,3,4-tetrahydroquinolin-7-yl)urea]
11 | 6.77 | 72% | CN1C(=O)CCc2ccc(NC(=O)N[C@@H]3CCOc4ccccc43)cc21 [Example 258, 1-[(4R)-3,4-dihydro-2H-chromen-4-yl]-3-(1-methyl-2-oxo-1,2,3,4-tetrahydroquinolin-7-yl)urea]
12 | 5.33 | 89% | CCC1(CC)C[C@@H](NC(=O)Nc2ccc3c(c2)N(C)C(=O)CC3)c2cccc(F)c2O1 [Example 259, 1-[(4R)-2,2-diethyl-8-fluoro-3,4-dihydro-2H-chromen-4-yl]-3-(1-methyl-2-oxo-1,2,3,4-tetrahydroquinolin-7-yl)urea]
13 | 6.89 | 61% | CCC1(CC)C[C@@H](NC(=O)Nc2ccc3c(c2)N(C)C(=O)CC3)c2ccccc2O1 [Example 260, 1-[(4R)-2,2-diethyl-3,4-dihydro-2H-chromen-4-yl]-3-(1-methyl-2-oxo-1,2,3,4-tetrahydroquinolin-7-yl)urea]
14 | 6.66 | 70% | CCC1(CC)C[C@@H](NC(=O)Nc2ccc3c(c2)N(C)C(=O)CC3)c2ccc(C(F)(F)F)cc2O1 [Example 261, 1-[(4R)-2,2-diethyl-7-(trifluoromethyl)-3,4-dihydro-2H-chromen-4-yl]-3-(1-methyl-2-oxo-1,2,3,4-tetrahydroquinolin-7-yl)urea]
15 | 6.34 | 37% | CCC1(CC)C[C@@H](NC(=O)Nc2ccc3c(c2)N(C)C(=O)CC3)c2ccc(Cl)cc2O1 [Example 262, 1-[(4R)-7-chloro-2,2-diethyl-3,4-dihydro-2H-chromen-4-yl]-3-(1-methyl-2-oxo-1,2,3,4-tetrahydroquinolin-7-yl)urea]
16 | 6.30 | 51% | CN1C(=O)CCc2ccc(NC(=O)N[C@@H]3CC(CF)(CF)Oc4cc(C(F)(F)F)ccc43)cc21 [Example 263, 1-[(4R)-2,2-bis(fluoromethyl)-7-(trifluoromethyl)-3,4-dihydro-2H-chromen-4-yl]-3-(1-methyl-2-oxo-1,2,3,4-tetrahydroquinolin-7-yl)urea]
17 | 6.77 | 82% | CCC1(CC)C[C@@H](NC(=O)Nc2ccc3c(c2)N(C)C(=O)CC3)c2ccc(Cl)c(Cl)c2O1 [Example 264, 1-[(4R)-7,8-dichloro-2,2-diethyl-3,4-dihydro-2H-chromen-4-yl]-3-(1-methyl-2-oxo-1,2,3,4-tetrahydroquinolin-7-yl)urea]
18 | 6.18 | 53% | CN1C(=O)CCc2ccc(NC(=O)N[C@@H]3CC(C)(C)Oc4cc(C(F)(F)F)ccc43)cc21 [Example 265, 1-[(4R)-2,2-dimethyl-7-(trifluoromethyl)-3,4-dihydro-2H-chromen-4-yl]-3-(1-methyl-2-oxo-1,2,3,4-tetrahydroquinolin-7-yl)urea]
19 | 7.19 | 54% | CCCC1(CCC)C[C@@H](NC(=O)Nc2ccc3c(c2)N(C)C(=O)CC3)c2cc(F)ccc2O1 [Example 266, 1-[(4R)-6-fluoro-2,2-dipropyl-3,4-dihydro-2H-chromen-4-yl]-3-(1-methyl-2-oxo-1,2,3,4-tetrahydroquinolin-7-yl)urea]
20 | 6.42 | 63% | CN1C(=O)CCc2ccc(NC(=O)N[C@@H]3CC(CF)(CF)Oc4ccc(F)cc43)cc21 [Example 267, 1-[(4R)-6-fluoro-2,2-bis(fluoromethyl)-3,4-dihydro-2H-chromen-4-yl]-3-(1-methyl-2-oxo-1,2,3,4-tetrahydroquinolin-7-yl)urea]
21 | 5.92 | 66% | CN1C(=O)CCc2ccc(NC(=O)N[C@@H]3CC(CF)(CF)Oc4c(F)cc(F)cc43)cc21 [Example 268, 1-[(4R)-6,8-difluoro-2,2-bis(fluoromethyl)-3,4-dihydro-2H-chromen-4-yl]-3-(1-methyl-2-oxo-1,2,3,4-tetrahydroquinolin-7-yl)urea]
22 | 6.27 | 70% | CN1C(=O)CCc2ccc(NC(=O)N[C@@H]3CC4(CCC4)Oc4ccc(F)cc43)cc21 [Example 269, 1-[(4R)-6-fluoro-3,4-dihydrospiro[chromene-2,1′-cyclobutan]-4-yl]-3-(1-methyl-2-oxo-1,2,3,4-tetrahydroquinolin-7-yl)urea]
23 | 6.66 | 86% | CCC1(CC)C[C@@H](NC(=O)Nc2ccc3c(c2)N(C)C(=O)CC3)c2cc(F)ccc2O1 [Example 270, 1-[(4R)-2,2-diethyl-6-fluoro-3,4-dihydro-2H-chromen-4-yl]-3-(1-methyl-2-oxo-1,2,3,4-tetrahydroquinolin-7-yl)urea]
24 | 6.77 | 69% | CCCC1(CCC)C[C@@H](NC(=O)Nc2ccc3c(c2)N(C)C(=O)CC3)c2cccc(F)c2O1 [Example 271, 1-[(4R)-8-fluoro-2,2-dipropyl-3,4-dihydro-2H-chromen-4-yl]-3-(1-methyl-2-oxo-1,2,3,4-tetrahydroquinolin-7-yl)urea]
25 | 6.74 | 101% | CCC1(CC)C[C@@H](NC(=O)Nc2ccc3c(c2)N(C)C(=O)CC3)c2ccc(OC(F)(F)F)cc2O1 [Example 272, 1-[(4R)-2,2-diethyl-7-(trifluoromethoxy)-3,4-dihydro-2H-chromen-4-yl]-3-(1-methyl-2-oxo-1,2,3,4-tetrahydroquinolin-7-yl)urea]
26 | 6.68 | 55% | CN1C(=O)CCc2ccc(NC(=O)N[C@@H]3CC(CF)(CF)Oc4c3ccc(Cl)c4F)cc21 [Example 273, 1-[(4R)-7-chloro-8-fluoro-2,2-bis(fluoromethyl)-3,4-dihydro-2H-chromen-4-yl]-3-(1-methyl-2-oxo-1,2,3,4-tetrahydroquinolin-7-yl)urea]
27 | 7.28 | 81% | CN1C(=O)CCc2ccc(NC(=O)N[C@@H]3CC(C)(C)Oc4ccc(F)cc43)cc21 [Example 274, 1-[(4R)-6-fluoro-2,2-dimethyl-3,4-dihydro-2H-chromen-4-yl]-3-(1-methyl-2-oxo-1,2,3,4-tetrahydroquinolin-7-yl)urea]
